Experimental data reported in patent US7247617B2, “Sixteen-member macrolide antiinfective agents” (Kosan Biosciences Incorporated, priority 2004, dated 2007).

How the values were obtained:
[1] = system: S. pneumoniae; assay: Biological activity against bacterial strains: S. pneumoniae; type: cell-based, Streptococcus pneumoniae; parameters: Biological Activity, S. pneumoniae ATCC6301 / Biological Activity, S. pneumoniae ATCC700671 / Biological Activity, S. pneumoniae ATCC700676* / Biological Activity, S. pneumoniae ATCC700677* / Biological Activity, S. pneumoniae ATCC700905* / Biological Activity, S. pneumoniae ATCC700906* / Biological Activity, S. pneumoniae ATCC49619: unit not given here; details: for Biological Activity, S. pneumoniae ATCC6301: strain ATCC6301; for Biological Activity, S. pneumoniae ATCC49619: strain ATCC49619; for Biological Activity, S. pneumoniae ATCC700671: strain ATCC700671; for Biological Activity, S. pneumoniae ATCC700676*: strain ATCC700676, macrolide resistant strain; for Biological Activity, S. pneumoniae ATCC700677*: strain ATCC700677, macrolide resistant strain; for Biological Activity, S. pneumoniae ATCC700905*: strain ATCC700905, macrolide resistant strain; for Biological Activity, S. pneumoniae ATCC700906*: strain ATCC700906, macrolide resistant strain
[2] = system: S. aureus; assay: Biological activity against bacterial strains: S. aureus; type: cell-based, Staphylococcus aureus; parameters: unit not given here; details: for Biological Activity, S. aureus ATCC6538p: strain ATCC6538p; for Biological Activity, S. aureus ATCC14154*: strain ATCC14154, macrolide resistant strain; for Biological Activity, S. aureus ATCC29213: strain ATCC29213; for Biological Activity, S. aureus ATCC33591*: strain ATCC33591, macrolide resistant strain; for Biological Activity, S. aureus ATCCBAA-39*: strain ATCCBAA-39, macrolide resistant strain; for Biological Activity, S. aureus ATCCBAA-44*: strain ATCCBAA-44, macrolide resistant strain
[3] = system: S. epidermidis; assay: Biological activity against bacterial strains: S. epidermidis; type: cell-based, Staphylococcus epidermidis; details: strain ATCC12228
[4] = system: E. faecalis; assay: Biological activity against bacterial strains: E. faecalis; type: cell-based, Enterococcus faecalis; details: strain ATCC51575

SMILES	Biological Activity, S. pneumoniae ATCC6301 [1]	Biological Activity, S. pneumoniae ATCC49619 [1]	Biological Activity, S. pneumoniae ATCC700671 [1]	Biological Activity, S. pneumoniae ATCC700676* [1]	Biological Activity, S. pneumoniae ATCC700677* [1]	Biological Activity, S. pneumoniae ATCC700905* [1]	Biological Activity, S. pneumoniae ATCC700906* [1]	Biological Activity, S. aureus ATCC6538p [2]	Biological Activity, S. aureus ATCC14154* [2]	Biological Activity, S. aureus ATCC29213 [2]	Biological Activity, S. aureus ATCC33591* [2]	Biological Activity, S. aureus ATCCBAA-39* [2]	Biological Activity, S. aureus ATCCBAA-44* [2]	Biological Activity, S. epidermidis ATCC12228 [3]	Biological Activity, E. faecalis ATCC51575 [4]
CCC1OC(=O)CC(O)C(C)C(OC2OC(C)C(O)C(N(C)C)C2O)C(CCN2CC(C)CC(C)C2)CC(C)C(=NOCCCCOc2ccc3ncccc3c2)C=CC(C)=CC1CO (single isomer, unassigned) [Compound U]	6.25	12.5	12.5	>12.5	>12.5	12.5	>12.5	>12.5	>12.5	>12.5	>12.5	>12.5	>12.5	>12.5	>12.5
CCC1OC(=O)CC(O)C(C)C(OC2OC(C)C(O)C(N(C)C)C2O)C(CC=O)CC(C)C(=NOCCCCOc2ccc3ncccc3c2)C=CC(C)=CC1CO (stereo not drawn) [Compound B]	0.025	0.01	0.025	0.025	0.39	0.025	>12.5	0.20	0.78	0.78	>12.5	>12.5	>12.5	0.20	>12.5
CCC1OC(=O)CC(O)C(C)C(OC2OC(C)C(O)C(N(C)C)C2O)C(CC=O)CC(C)C(=NOCC(=O)N2CCN(c3ccccc3)CC2)C=CC(C)=CC1CO (stereo not drawn) [Compound C]	0.025	0.01	0.025	0.39	6.25	0.20	>12.5	0.78	1.56	1.56	>12.5	>12.5	>12.5	0.20	>12.5
CO[C@@H]1[C@@H](OC2OC(C)C(O)C(N(C)C)C2O)[C@@H](CC=O)C[C@@H](C)C(=N/OCCCOc2ccc3ncccc3c2)/C=C/C=C/C[C@@H](C)OC(=O)C[C@H]1O (stereo partly drawn) [Compound HH]	0.025	0.025	0.025	0.025	3.12	0.025	>12.5	0.2	0.78	3.12	>12.5	>12.5	>12.5	0.78	>12.5
CCC1OC(=O)CC(O)C(C)C(OC2OC(C)C(O)C(N(C)C)C2O)C(CC=O)CC(C)C(=NOCC=Cc2ccc3nccnc3c2)C=CC(C)=CC1CO (stereo not drawn) [Compound H]	0.025	0.025	0.049	0.049	>12.5	0.049	>12.5	0.20	0.39	0.39	>12.5	>12.5	>12.5	0.20	>12.5
CC[C@H]1OC(=O)C[C@@H](O)[C@H](C)[C@@H](OC2OC(C)C(O)C(N(C)C)C2O)[C@@H](CC=O)C[C@@H](C)C(=N/OCCOc2ccccc2)/C=C/C(C)=C/C1CO (stereo partly drawn) [Compound IIa]	0.20	0.20	0.39	0.20	3.12	0.39	>12.5	0.78	1.56	1.56	>12.5	>12.5	>12.5	1.56	>12.5
CC[C@H]1OC(=O)C[C@@H](O)[C@H](C)[C@@H](OC2OC(C)C(O)C(N(C)C)C2O)[C@@H](CC=O)C[C@@H](C)C(=N\OCc2ccc(F)cc2)/C=C/C(C)=C/C1CO (stereo partly drawn) [Compound IIc]	0.2	0.2	0.39	0.2	3.12	0.39	>12.5	0.78	1.56	1.56	>12.5	>12.5	>12.5	1.56	>12.5
CC[C@H]1OC(=O)C[C@@H](O)[C@H](C)[C@@H](OC2OC(C)C(O)C(N(C)C)C2O)[C@@H](CC=O)C[C@@H](C)C(=N/OCc2ccc(F)cc2)/C=C/C(C)=C/C1CO (stereo partly drawn) [Compound IId]	0.025	0.2	0.2	0.025	1.56	0.2	>12.5	0.39	1.56	1.56	>12.5	>12.5	>12.5	0.78	>12.5
CCC1OC(=O)CC(O)C(C)C(OC2OC(C)C(O)C(N(C)C)C2O)C(CCN2CC(C)CC(C)C2)CC(C)C(=NOCCOc2ccccc2)C=CC(C)=CC1COC1OC(C)C(O)C(OC)C1OC (stereo not drawn) [Compound O]	0.39	0.78	0.39	1.56	6.25	0.78	12.5	0.20	0.78	0.39	>12.5	>12.5	>12.5	0.39	>12.5
CCC1OC(=O)CC(O)C(C)C(OC2OC(C)C(O)C(N(C)C)C2O)C(CCN2CC(C)CC(C)C2)CC(C)C(=NOCCCOc2ccc3ncccc3c2)C=CC(C)=CC1CO (stereo not drawn) [Compound R]	6.25	6.25	6.25	>12.5	>12.5	>12.5	>12.5	12.5	>12.5	>12.5	>12.5	>12.5	>12.5	>12.5	>12.5
CCC1OC(=O)CC(O)C(C)C(OC2OC(C)C(O)C(N(C)C)C2O)C(CCN2CC(C)CC(C)C2)CC(C)C(=NOCCCOc2ccc3ncccc3c2)C=CC(C)=CC1CO (stereo not drawn) [Compound S]	6.25	6.25	6.25	12.5	>12.5	12.5	>12.5	>12.5	>12.5	>12.5	>12.5	>12.5	>12.5	>12.5	>12.5
